Laboratory results taken from patent US20190160131A1, “METHOD FOR CELL REJUVENATION USING ROSA ROXBURGHII FRUIT EXTRACTS” (TCI CO., LTD, priority 2017, published 2019).

Tested on: human skin fibroblast CCD-966SK
Experiment: Chemical (etoposide)-induced telomere shortening, telomere length by qPCR
Format: cell-based
Details: 30 μM etoposide only, 5 days of incubation, compared to control cells (FIG. 8)
Method: Telomere length is determined based on qPCR technique. First, genomic DNA samples were extracted from cells. Next, the genomic DNA samples (20 ng) were subjected to qPCR to obtain melting curves. The qPCR was performed with a PCR thermocycler using KAPA CYBR FAST qPCR Kit (2×) (KAPA Biosystems) and primers of the telomere and the single-copy 36B4 gene (Table 2). In addition, serially diluted standards of the telomere (10- to 10^6-fold dilutions starting from 60 pg) and the 36B4 gene (10- to 10^6-fold dilutions starting from 200 pg) were prepared and subjected to qPCR under the following reaction conditions to obtain standard curves (Ct/kb): a denaturation phase at 95° C. for 10 minutes followed by 40 cycles of denaturation (95° C.) for 15 seconds and annealing (60° C.) for 1 minute. The telomere standard was an oligonucleotide having 14 repeats of TTAGGG (SEQ ID NO: 7); the standard of 36B4 gene had the nucleotide sequence of SEQ ID NO:8. Lastly, the average length of telomere in the genomic DNA samples was determined from the aforementioned standard curves and the cycle threshold values of telomere and 36B4 gene in the genomic DNA samples.
The protective effect of Rosa roxburghii fruit water extract on chromosomal telomere was investigated in human skin fibroblast CCD-966SK. […]

SMILES: COc1cc([C@@H]2c3cc4c(cc3[C@@H](O[C@@H]3O[C@@H]5CO[C@@H](C)O[C@H]5[C@H](O)[C@H]3O)[C@H]3COC(=O)[C@H]23)OCO4)cc(OC)c1O [etoposide]
- relative length of telomeres: significantly shortened
